From publication PMC11455950, “Effects of SZV-2649, a new multiple ion channel inhibitor mexiletine analogue” (Scientific Reports, 2024)

Legend:
[1] = tested on: rapid delayed rectifier potassium current (IKr); assay: Whole-cell patch-clamp, rapid delayed rectifier potassium current in dog ventricular myocytes; assay type: cell-based; settings: Canis lupus familiaris, Ventricular myocyte, tail current, dog left ventricular myocytes
Protocol: (§1) The effects of SZV-2649 on transmemrane ionic currents were investigated in dog cardiac myocytes after a 5-minute superfusion of the drug.
The rapid delayed rectifier potassium current (IKr) was elicited from the holding potential of -80 mV following a prepulse to -40 mV. IKr tail current was measured at a post pulse to -40 mV after 1 s long test pulses from − 30 mV to 50 mV using 10 mV increments at the pulsing cycle length of 20 s (see inset of Fig. 4A). The effect of SZV-2649 was investigated at 1 and 5 µM concentrations.
Ventricular myocytes from Beagle dogs were enzymatically dissociated as described in detail previously. […]
(§2) The membrane currents were recorded with Axopatch-200B amplifiers (Molecular Devices, Sunnyvale, CA, USA) by means of the whole-cell configuration of the patch-clamp technique. […]
The inward rectifier (IK1), the transient outward (Ito), the rapid (IKr) and the slow (IKs) delayed rectifier potassium currents were recorded in HEPES-buffered Tyrode’s solution. […] When IKr was recorded, IKs was inhibited by using the selective IKs blocker HMR-1556 (0.5 µM). […]

[2] = tested on: L-type inward calcium current (ICaL); assay: Whole-cell patch-clamp, L-type calcium current in dog ventricular myocytes; assay type: cell-based; settings: 10 µM, dog left ventricular myocytes
Protocol: as §1
The L-type inward calcium current (ICaL) was measured from a holding potential of -80 mV with a 40 ms prepulse to -40 mV to inactivate INa (see inset of Fig. 3B). Test pulses of 400 ms duration from − 35 mV to 55 mV were applied with a pulsing cycle length of 3 s. In the internal (pipette) solution, KCl was replaced by 125 mM CsCl to block potassium currents.
Ventricular myocytes from Beagle dogs were enzymatically dissociated as described in detail previously. A single droplet of cell suspension was placed in a transparent recording chamber mounted on the stage of an inverted microscope (Olympus IX51, Olympus, Tokyo, Japan), and individual myocytes were allowed to settle and adhere to the chamber bottom for at least 5–10 min before superfusion was initiated and maintained by gravity. Only rod-shaped cells with clear striations were used. […]
as §2
The L-type calcium current (ICaL) was recorded in HEPES-buffered Tyrode’s solution supplemented with 3 mM 4-aminopyridine. […]

dog atrial muscle = assay: Conventional microelectrode action potential recording, dog atrial muscle; settings: for APA / APD50 / APD90 / RP / Vmax: atrial muscle, CL = 1000 ms, n = 11
Protocol: The effects of SZV-2649 on action potentials were studied in dog ventricular, atrial and Purkinje fiber preparations.
Action potentials were recorded in cardiac ventricular trabeculae and papillary muscle preparations obtained from the right ventricles of Beagle dogs (10–15 kg) of either sex using the conventional microelectrode technique. Dogs were sacrificed by iv. sedation with xylazine (1 mg/kg), followed by i.v. administration of 50 mg/kg pentobarbital. After the cornea reflex disapeared the chest was opened, and the heart was rapidly removed. The heart was immediately rinsed in oxygenated modified Locke’s solution containing (in mM): NaCl 128.3, KCl 4, CaCl2 1.8, MgCl2 0.42, NaHCO3 21.4, and glucose 10. The pH of this solution was set between 7.35 and 7.4 when gassed with the mixture of 95% O2 and 5% CO2 at 37 °C.
Isolated papillary muscle or atrial trabecula and Purkinje fiber preparations were obtained and prepared from the right ventricle and were individually mounted in a tissue chamber with the volume of 50 ml. Each preparation was initially stimulated through a pair of platinum electrodes in contact with the preparation using rectangular current pulses of 2 ms duration. These stimuli were delivered at a constant cycle length of 1000 ms for at least 60 min allowing the preparation to equilibrate before the measurements were initiated. Transmembrane potentials were recorded using conventional glass microelectrodes, filled with 3 M KCl and having tip resistances of 5–20 MΩ, connected to the input of a high impedance electrometer (Experimetria, type 309, Budapest, Hungary) which was coupled to a dual beam oscilloscope. […] Stimulation with a constant cycle length of 1000 ms was applied in the course of all experiments. Attempts were made to maintain the same impalement throughout each experiment. In case an impalement became dislodged, adjustment was attempted, and if the action potential characteristics of the re-established impalement deviated by less than 5% from the previous measurement, the experiment continued[64]–[67]. All measurements were carried out at 37 °C.

How did the inhibition at 1 µM ([1]; 1 µM) turn out when CC(N)COc1c(I)cc(C#N)cc1I.Cl (centres unmarked) [SZV-2649, 4-(2-aminopropoxy)-3,5-diiodobenzonitrile hydrochloride] was run?
Its inhibition at 1 µM is about 23%.

What about the inhibition at 5 µM ([1]; 5 µM) of the same compound?
Its inhibition at 5 µM is about 75%.

What about the “Effect on magnitude of ICaL” value [2] of the same compound?
The value was “moderately but significantly decreased”.

And the APA (dog atrial muscle; 5 µM)?
The APA was 108.8 ± 1.9 mV.

What about the APD50 (dog atrial muscle; 5 µM) of the same compound?
Its APD50 is 73.3 ± 6.2 ms.

And the APD90 (dog atrial muscle; 5 µM)?
Its APD90 is 168.9 ± 8.8 ms.

What about the RP (dog atrial muscle; 5 µM) of the same compound?
The RP was −88.2 ± 1.8 mV.

And the Vmax (dog atrial muscle; 5 µM)?
Its Vmax is 195.3 ± 22.0 V/s.

What about the APA (dog atrial muscle; 10 µM) of the same compound?
Its APA is 102.6 ± 3.2 mV.

And the APD50 (dog atrial muscle; 10 µM)?
Its APD50 is 70.1 ± 6.2 ms.

What about the APD90 (dog atrial muscle; 10 µM) of the same compound?
Its APD90 is 176.8 ± 8.5 ms.

What about the RP (dog atrial muscle; 10 µM) of the same compound?
The RP was −85.1 ± 1.7 mV.

What about the Vmax (dog atrial muscle; 10 µM) of the same compound?
Its Vmax is 145.9 ± 12.1 V/s.

What about the “Prolongation of repolarization (APD) in the absence of carbachol” value (dog atrial muscle; 10 µM, dog atrial muscle) of the same compound?
Its value is 10%.
